Results taken from US11077120B2, “Prostaglandin receptor EP2 antagonists, derivatives, compositions, and uses related thereto” (Emory University, priority 2014, dated 2021).

Test system: C6-glioma cells
Assay: not given
Conditions: rat

Compound | CC50 [µM] | Therapeutic Index (CC50/EP2 KB) | concentration showing an effect on cell viability [µM]
CCN(CC)c1ccc(C(=O)NCCn2c(C)cc3ccccc32)cc1 [Compound 6f, 4-(Diethylamino)-N-(2-(2-methyl-1H-indol-1-yl)ethyl)benzamide] | 320 | 118,520 | –
Cc1cc2ccccc2n1CCNC(=O)c1ccc(N2CCCC2)cc1 [Compound 7j, N-(2-(2-Methyl-1H-indol-1-yl)ethyl)-4-(pyrrolidin-1-yl)benzamide] | 337 | 16,120 | –
Cc1cc2ccccc2n1CCNC(=O)c1ccc(N2CCCCCC2)cc1 [Compound 7o] | 327 | 14,470 | –
CCCN(CCC)c1ccc(C(=O)NCCn2c(C)cc3ccccc32)cc1 [Compound 6g] | 332 | 28,130 | –
Cc1cc2ccccc2n1CCNC(=O)c1ccc(N2CCN(C)CC2)c(F)c1 [Compound 7u] | 300 | 6,660 | –
Cc1cc2ccccc2n1CCNC(=O)c1ccc(N2CCC(O)CC2)cc1 [Compound 7w] | 163 | 6,082 | > 100
Cc1[nH]c2ccccc2c1CCNC(=O)c1ccc(N2CCOCC2)cc1 [Compound 9c] | 311 | – | –
Cc1[nH]c2ccccc2c1CCNC(=O)c1ccc(N(C)C)cc1 [Compound 8z] | 320 | – | –

Target: T1, human IP receptors (Homo sapiens, UniProt P43119)
T1 construct: expressed in transfected cells
T1 sequence (P43119 whole entry): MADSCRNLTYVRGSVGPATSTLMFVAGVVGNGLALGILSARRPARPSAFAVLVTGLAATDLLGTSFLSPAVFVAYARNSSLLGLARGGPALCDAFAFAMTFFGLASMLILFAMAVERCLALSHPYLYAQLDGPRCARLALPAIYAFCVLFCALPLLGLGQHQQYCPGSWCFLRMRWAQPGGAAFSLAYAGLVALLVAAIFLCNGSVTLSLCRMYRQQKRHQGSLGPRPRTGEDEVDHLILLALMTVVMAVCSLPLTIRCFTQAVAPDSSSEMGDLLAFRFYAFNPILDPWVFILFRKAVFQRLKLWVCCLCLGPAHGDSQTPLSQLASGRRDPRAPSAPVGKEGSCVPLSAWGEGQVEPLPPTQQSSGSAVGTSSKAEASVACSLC
Assay: cell-based cAMP TR-FRET assay, IP (agonist iloprost)
Conditions: EP2 over IP
Method: (§1) These derivatives were selected for testing against EP4 and IP receptors. Cell lines were created that overexpress EP4 receptors, or IP receptors on C6-glioma cells. A cAMP-derived TR-FRET assay was developed using agonists PGE2 (for EP4) and iloprost (for IP), similar to EP2 assay.
(§2) Intracellular cAMP was measured with a cell-based homogeneous time-resolved fluorescence resonance energy transfer (TR-FRET) method (Cisbio Bioassays). […] Endogenous cAMP produced by cells competes with labeled cAMP for binding to the cAMP antibody and thus reduces the FRET signal. Cells stably expressing human DP1, EP2, EP4, or IP receptors were seeded into 384-well plates in 30 μl complete medium (4,000 cells/well) and grown overnight. The medium was carefully withdrawn and 10 μl Hanks' Buffered Salt Solution (HBSS) (Hyclone) containing 20 μM rolipram was added into the wells to block phosphodiesterases. The cells were incubated at room temperature for 0.5-1 h and then treated with vehicle or test compound for 10 min before addition of increasing concentrations of appropriate agonist: BW245C for DP1, PGE2 for EP2 and EP4, or iloprost for IP. The cells were incubated at room temperature for 40 min, then lysed in 10 μl lysis buffer containing the FRET acceptor cAMP-d2 and 1 min later another 10 μl lysis buffer with anti-cAMP-Cryptate was added. After 60-90 min incubation at room temperature, the FRET signal was measured by an Envision 2103 Multilabel Plate Reader (PerkinElmer Life Sciences) with a laser excitation at 337 nm and dual emissions at 665 nm and 590 nm for d2 and Cryptate (50 s delay), respectively. The FRET signal was expressed as: F665/F590×10^4.

Compound | selectivity against the IP receptor [fold]
CCN(CC)c1ccc(C(=O)NCCn2c(C)cc3ccccc32)cc1 [Compound 6f, 4-(Diethylamino)-N-(2-(2-methyl-1H-indol-1-yl)ethyl)benzamide] | ~3000

Same assay, conditions: Table 2

Compound | Selective Index (IP/EP2)
CCN(CC)c1ccc(C(=O)NCCn2c(C)cc3ccccc32)cc1 [Compound 6f, 4-(Diethylamino)-N-(2-(2-methyl-1H-indol-1-yl)ethyl)benzamide] | 2,960
Cc1cc2ccccc2n1CCNC(=O)c1ccc(N2CCCC2)cc1 [Compound 7j, N-(2-(2-Methyl-1H-indol-1-yl)ethyl)-4-(pyrrolidin-1-yl)benzamide] | 570
Cc1cc2ccccc2n1CCNC(=O)c1ccc(N2CCCCCC2)cc1 [Compound 7o] | 375
CCCN(CCC)c1ccc(C(=O)NCCn2c(C)cc3ccccc32)cc1 [Compound 6g] | 95
Cc1cc2ccccc2n1CCNC(=O)c1ccc(N2CCN(C)CC2)c(F)c1 [Compound 7u] | 1,420
Cc1cc2ccccc2n1CCNC(=O)c1ccc(N2CCC(O)CC2)cc1 [Compound 7w] | 675

Same assay, conditions: Table 2; extrapolated Schild KB from single concentration of 10 μM

Compound | potency estimated from few doses [µM]
CCN(CC)c1ccc(C(=O)NCCn2c(C)cc3ccccc32)cc1 [Compound 6f, 4-(Diethylamino)-N-(2-(2-methyl-1H-indol-1-yl)ethyl)benzamide] | 8
Cc1cc2ccccc2n1CCNC(=O)c1ccc(N2CCCC2)cc1 [Compound 7j, N-(2-(2-Methyl-1H-indol-1-yl)ethyl)-4-(pyrrolidin-1-yl)benzamide] | 14.2
Cc1cc2ccccc2n1CCNC(=O)c1ccc(N2CCCCCC2)cc1 [Compound 7o] | 8.5
CCCN(CCC)c1ccc(C(=O)NCCn2c(C)cc3ccccc32)cc1 [Compound 6g] | 1.12
Cc1cc2ccccc2n1CCNC(=O)c1ccc(N2CCN(C)CC2)c(F)c1 [Compound 7u] | 64
Cc1cc2ccccc2n1CCNC(=O)c1ccc(N2CCC(O)CC2)cc1 [Compound 7w] | 18.1
Cc1[nH]c2ccccc2c1CCNC(=O)c1ccc(N(C)C)cc1 [Compound 8z] | 63.1

Target: T2, human EP2 receptors (Homo sapiens, UniProt P43116)
T2 construct: expressed in transfected cells
T2 sequence (P43116 whole entry): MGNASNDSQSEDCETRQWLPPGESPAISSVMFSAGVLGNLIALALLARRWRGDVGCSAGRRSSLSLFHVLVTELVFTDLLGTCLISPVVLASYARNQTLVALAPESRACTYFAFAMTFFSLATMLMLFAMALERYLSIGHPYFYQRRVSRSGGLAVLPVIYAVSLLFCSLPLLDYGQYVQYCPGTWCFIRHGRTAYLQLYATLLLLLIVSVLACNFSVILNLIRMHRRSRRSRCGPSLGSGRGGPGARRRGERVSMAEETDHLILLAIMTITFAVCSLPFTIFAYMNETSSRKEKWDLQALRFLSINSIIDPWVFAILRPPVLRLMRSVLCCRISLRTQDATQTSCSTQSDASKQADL
Assay: cell-based cAMP TR-FRET assay, rightward shift of PGE2 concentration response curve (Schild KB), EP2
Conditions: not given
Method: KB value indicates the antagonist concentration required for a twofold rightward shift in the PGE2 dose-response curve. Thus, a lower KB value indicates a higher inhibitory potency.
(§3) The synthesis was carried out starting from commercially available 2-methyl indole or 2-trifluoromethyl indoles (11a-c), which on treatment with bromoacetonitrile provided intermediates (12a-c), which then were subjected to lithium aluminum hydride to reduce cyanide to amines. […] Synthesized derivatives were tested by using a cAMP-derived TR-FRET assay, at single concentration (1 μM) to observe a rightward shift of PGE2 (an EP2 agonist) concentration response curve in a C6G cell line that overexpresses human EP2 receptors.
A lower KB value indicates a higher inhibitory potency.
as §2

Compound | fold improved/higher EP2 potency in comparison to 6b [fold]
CCN(CC)c1ccc(C(=O)NCCn2c(C)cc3ccccc32)cc1 [Compound 6f, 4-(Diethylamino)-N-(2-(2-methyl-1H-indol-1-yl)ethyl)benzamide] | ~8

Same assay, conditions: Schild regression analysis

Compound | mechanism of antagonism of EP2
CCN(CC)c1ccc(C(=O)NCCn2c(C)cc3ccccc32)cc1 [Compound 6f, 4-(Diethylamino)-N-(2-(2-methyl-1H-indol-1-yl)ethyl)benzamide] | competitive

Same assay, conditions: Table 1; Schild KB from single antagonist concentration 1 μM; average of 2-3 measurements in duplicate; read-out: EP2 KB

Compound | Kb [nM]
COc1ccc(C(=O)NCCn2c(C)cc3ccccc32)cc1OC [Compound 6b] | 22.3

Same assay, conditions: Table 2; average of 2-3 independent experiments in duplicate; read-out: KB EP2

Compound | Kb [nM]
CCN(CC)c1ccc(C(=O)NCCn2c(C)cc3ccccc32)cc1 [Compound 6f, 4-(Diethylamino)-N-(2-(2-methyl-1H-indol-1-yl)ethyl)benzamide] | 2.7
Cc1cc2ccccc2n1CCNC(=O)c1ccc(N2CCCC2)cc1 [Compound 7j, N-(2-(2-Methyl-1H-indol-1-yl)ethyl)-4-(pyrrolidin-1-yl)benzamide] | 24.7

Same assay, conditions: Table 6; read-out: EP2 KB

Compound | Kb [nM]
Cc1cc2ccccc2n1CCNC(=O)c1ccc(N=[N+]=[N-])cc1 [TG7-297] | 89.4
Cc1cc2ccccc2n1CCNC(=O)c1cnc(N2CCC(CO)CC2)nc1 [TG8-59] | 159
Cc1cc2ccccc2n1CCNC(=O)c1ccc(OCCO)cc1 [TG8-12] | 133
COc1ccc(C(=O)NCCn2c(C)cc3ccccc32)cc1OC [Compound 6b] | 26.7

Same assay, conditions: single concentration values; read-out: EP2 potency (Schild KB)

Compound | Kb [nM]
CCN(CC)c1ccc(C(=O)NCCn2c(C)cc3ccccc32)cc1 [Compound 6f, 4-(Diethylamino)-N-(2-(2-methyl-1H-indol-1-yl)ethyl)benzamide] | ~10

Target: T3, human EP4 receptors (Homo sapiens, UniProt P35408)
T3 construct: expressed in transfected cells
T3 sequence (P35408 whole entry): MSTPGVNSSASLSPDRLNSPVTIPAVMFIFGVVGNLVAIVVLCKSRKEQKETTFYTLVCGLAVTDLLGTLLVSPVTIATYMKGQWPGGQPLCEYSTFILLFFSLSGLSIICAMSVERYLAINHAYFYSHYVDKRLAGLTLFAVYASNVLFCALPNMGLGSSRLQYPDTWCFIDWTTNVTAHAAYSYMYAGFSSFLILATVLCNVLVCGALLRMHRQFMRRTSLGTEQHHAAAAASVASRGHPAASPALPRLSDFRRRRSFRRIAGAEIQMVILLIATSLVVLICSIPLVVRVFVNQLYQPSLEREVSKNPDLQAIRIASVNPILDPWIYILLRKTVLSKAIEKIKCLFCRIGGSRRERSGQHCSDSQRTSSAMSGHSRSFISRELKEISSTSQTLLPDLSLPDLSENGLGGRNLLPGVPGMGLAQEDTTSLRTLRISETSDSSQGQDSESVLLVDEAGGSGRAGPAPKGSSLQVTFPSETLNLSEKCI
Assay: cell-based cAMP TR-FRET assay, EP4 (agonist PGE2)
Conditions: EP2 over EP4
Method: as §1, §2

Compound | selectivity over EP4 [fold]
Cc1cc2ccccc2n1CCNC(=O)c1ccc(N2CCN(C)CC2)c(F)c1 [Compound 7u] | 100

Same assay, conditions: Table 2

Compound | Selective Index EP4/EP2
CCN(CC)c1ccc(C(=O)NCCn2c(C)cc3ccccc32)cc1 [Compound 6f, 4-(Diethylamino)-N-(2-(2-methyl-1H-indol-1-yl)ethyl)benzamide] | 11,590
Cc1cc2ccccc2n1CCNC(=O)c1ccc(N2CCCC2)cc1 [Compound 7j, N-(2-(2-Methyl-1H-indol-1-yl)ethyl)-4-(pyrrolidin-1-yl)benzamide] | 1,160
Cc1cc2ccccc2n1CCNC(=O)c1ccc(N2CCCCCC2)cc1 [Compound 7o] | 1,045
CCCN(CCC)c1ccc(C(=O)NCCn2c(C)cc3ccccc32)cc1 [Compound 6g] | 1320
Cc1cc2ccccc2n1CCNC(=O)c1ccc(N2CCN(C)CC2)c(F)c1 [Compound 7u] | 106
Cc1cc2ccccc2n1CCNC(=O)c1ccc(N2CCC(O)CC2)cc1 [Compound 7w] | 2,629

Same assay, conditions: Table 2; extrapolated Schild KB from single concentration of 10 μM

Compound | potency estimated from few doses [µM]
CCN(CC)c1ccc(C(=O)NCCn2c(C)cc3ccccc32)cc1 [Compound 6f, 4-(Diethylamino)-N-(2-(2-methyl-1H-indol-1-yl)ethyl)benzamide] | 31.3
Cc1cc2ccccc2n1CCNC(=O)c1ccc(N2CCCC2)cc1 [Compound 7j, N-(2-(2-Methyl-1H-indol-1-yl)ethyl)-4-(pyrrolidin-1-yl)benzamide] | 28.7
Cc1cc2ccccc2n1CCNC(=O)c1ccc(N2CCCCCC2)cc1 [Compound 7o] | 23.6
CCCN(CCC)c1ccc(C(=O)NCCn2c(C)cc3ccccc32)cc1 [Compound 6g] | 15.5
Cc1cc2ccccc2n1CCNC(=O)c1ccc(N2CCN(C)CC2)c(F)c1 [Compound 7u] | 4.76
Cc1cc2ccccc2n1CCNC(=O)c1ccc(N2CCC(O)CC2)cc1 [Compound 7w] | 70.3
Cc1[nH]c2ccccc2c1CCNC(=O)c1ccc(N(C)C)cc1 [Compound 8z] | 16.4

Target: T4, human DP1 receptors (Homo sapiens, UniProt Q13258)
T4 construct: expressed in transfected cells
T4 sequence (Q13258 1-359): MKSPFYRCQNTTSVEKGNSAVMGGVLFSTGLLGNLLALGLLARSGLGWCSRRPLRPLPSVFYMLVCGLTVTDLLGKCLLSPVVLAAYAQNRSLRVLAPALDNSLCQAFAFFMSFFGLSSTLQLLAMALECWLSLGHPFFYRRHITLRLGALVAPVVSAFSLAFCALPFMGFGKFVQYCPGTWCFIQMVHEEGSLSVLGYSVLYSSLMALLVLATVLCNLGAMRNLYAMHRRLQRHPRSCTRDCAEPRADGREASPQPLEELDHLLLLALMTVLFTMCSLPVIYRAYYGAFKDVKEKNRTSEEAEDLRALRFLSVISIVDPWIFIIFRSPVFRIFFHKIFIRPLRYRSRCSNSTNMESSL
Assay: cell-based cAMP TR-FRET assay, DP1 (agonist BW245C)
Conditions: EP2 over DP1
Method: as §3
as §2, with “After 60-90 min incubation at room temperature, the FRET signal was measured by an Envision 2103 Multilabel Plate Reader (PerkinElmer Life Sciences) with a laser excitation at 337 nm and dual emissions at 665 nm and 590 nm for d2 and Cryptate (50 s delay), respectively.” left out

Compound | selectivity against DP1 [fold]
CCN(CC)c1ccc(C(=O)NCCn2c(C)cc3ccccc32)cc1 [Compound 6f, 4-(Diethylamino)-N-(2-(2-methyl-1H-indol-1-yl)ethyl)benzamide] | > 1200
Cc1cc2ccccc2n1CCNC(=O)c1ccc(N2CCCC2)cc1 [Compound 7j, N-(2-(2-Methyl-1H-indol-1-yl)ethyl)-4-(pyrrolidin-1-yl)benzamide] | 516

Same assay, conditions: Table 2

Compound | Selective Index (DP1/EP2)
CCN(CC)c1ccc(C(=O)NCCn2c(C)cc3ccccc32)cc1 [Compound 6f, 4-(Diethylamino)-N-(2-(2-methyl-1H-indol-1-yl)ethyl)benzamide] | 1,220
Cc1cc2ccccc2n1CCNC(=O)c1ccc(N2CCCC2)cc1 [Compound 7j, N-(2-(2-Methyl-1H-indol-1-yl)ethyl)-4-(pyrrolidin-1-yl)benzamide] | >516
Cc1cc2ccccc2n1CCNC(=O)c1ccc(N2CCCCCC2)cc1 [Compound 7o] | 342
CCCN(CCC)c1ccc(C(=O)NCCn2c(C)cc3ccccc32)cc1 [Compound 6g] | 298
Cc1cc2ccccc2n1CCNC(=O)c1ccc(N2CCN(C)CC2)c(F)c1 [Compound 7u] | 22
Cc1cc2ccccc2n1CCNC(=O)c1ccc(N2CCC(O)CC2)cc1 [Compound 7w] | 172

Same assay, conditions: Table 2; read-out: KB DP1

Compound | Kb [nM]
CCN(CC)c1ccc(C(=O)NCCn2c(C)cc3ccccc32)cc1 [Compound 6f, 4-(Diethylamino)-N-(2-(2-methyl-1H-indol-1-yl)ethyl)benzamide] | 3190
Cc1cc2ccccc2n1CCNC(=O)c1ccc(N2CCCC2)cc1 [Compound 7j, N-(2-(2-Methyl-1H-indol-1-yl)ethyl)-4-(pyrrolidin-1-yl)benzamide] | > 10000

Same assay, conditions: Table 6; read-out: DP1 KB

Compound | Kb [nM]
Cc1cc2ccccc2n1CCNC(=O)c1ccc(N=[N+]=[N-])cc1 [TG7-297] | 1890
Cc1cc2ccccc2n1CCNC(=O)c1cnc(N2CCC(CO)CC2)nc1 [TG8-59] | 5850
Cc1cc2ccccc2n1CCNC(=O)c1ccc(OCCO)cc1 [TG8-12] | 2740
COc1ccc(C(=O)NCCn2c(C)cc3ccccc32)cc1OC [Compound 6b] | 1350
